Assay results as given in patent US9603950B1, “Compounds of imaging agent with HDAC inhibitor for treatment of Alzheimer syndrome and method of synthesis thereof” (INSTITUTE OF NUCLEAR ENERGY RESEARCH, priority 2015, dated 2017).

Key:
Settings in all cases: BNL-26 inhibitor labeled with 11C
HDAC1 = HDAC1 (Homo sapiens, UniProt Q13547); test: HDAC1 inhibition, previous study of 11C-labeled BNL-26; type: biochemical
[1] = Penetration of the brain blood vessel barrier, previous study of 11C-labeled BNL-26; type: in vivo
HDAC2 = HDAC2 (Homo sapiens, UniProt Q92769); test: HDAC2 inhibition, previous study of 11C-labeled BNL-26; type: biochemical
HDAC2, sequence (Q92769 whole entry, species assumed): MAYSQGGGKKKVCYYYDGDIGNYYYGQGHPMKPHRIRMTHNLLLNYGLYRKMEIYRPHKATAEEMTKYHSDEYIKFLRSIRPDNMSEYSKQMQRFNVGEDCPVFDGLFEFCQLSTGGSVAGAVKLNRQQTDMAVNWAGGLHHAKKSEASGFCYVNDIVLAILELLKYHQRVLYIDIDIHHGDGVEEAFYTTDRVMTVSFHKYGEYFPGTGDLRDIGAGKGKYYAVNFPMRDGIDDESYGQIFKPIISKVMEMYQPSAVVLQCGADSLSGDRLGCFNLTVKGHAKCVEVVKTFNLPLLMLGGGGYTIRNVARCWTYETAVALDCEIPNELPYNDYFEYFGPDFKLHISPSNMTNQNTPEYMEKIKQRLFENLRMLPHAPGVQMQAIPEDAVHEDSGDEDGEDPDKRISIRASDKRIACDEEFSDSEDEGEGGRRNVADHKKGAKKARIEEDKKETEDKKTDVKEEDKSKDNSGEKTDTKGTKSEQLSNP

HDAC1, sequence (Q13547 whole entry, species assumed): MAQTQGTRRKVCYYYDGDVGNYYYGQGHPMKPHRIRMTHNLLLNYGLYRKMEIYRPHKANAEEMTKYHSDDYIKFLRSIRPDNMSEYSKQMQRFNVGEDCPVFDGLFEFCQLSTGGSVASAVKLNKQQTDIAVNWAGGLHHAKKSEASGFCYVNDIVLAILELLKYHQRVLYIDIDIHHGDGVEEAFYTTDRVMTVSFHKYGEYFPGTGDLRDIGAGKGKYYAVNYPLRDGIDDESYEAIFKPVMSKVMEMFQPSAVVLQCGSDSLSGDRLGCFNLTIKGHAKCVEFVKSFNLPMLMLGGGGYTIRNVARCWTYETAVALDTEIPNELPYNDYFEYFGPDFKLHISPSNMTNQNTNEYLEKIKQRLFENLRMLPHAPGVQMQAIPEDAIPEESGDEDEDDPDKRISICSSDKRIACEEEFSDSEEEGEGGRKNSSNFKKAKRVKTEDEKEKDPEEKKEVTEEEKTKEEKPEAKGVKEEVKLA

With `CN(C)Cc1ccc(C(=O)Nc2cc(-c3ccccc3)ccc2N)cc1` [BNL-26, N-(4-amino-[1,1′-biphenyl]-3-yl)-4-((dimethylamino)methyl)benzamide] the “inhibitory effect of HDAC1” value (HDAC1) was “good inhibitory effect”, the “ability to penetrate the brain blood vessel barrier” value [1] was “very good” and the “inhibitory effect of HDAC2” value (HDAC2) was “good inhibitory effect”.
